≈ marks a conversion by molar mass, not a printed value.
Columns and labels:
[1] = system: A375 human melanoma cells; assay: MTT cell proliferation assay in A375 cells; format: cell-based; conditions: A-375, 72 h, 3 days, read-out: 50% of inhibitory concentration, IC50 in A375 cells
Description: MTT [3-(4,5-dimethylthiazol-2-yl)-2,5-diphenyltetrazolium bromide] incorporation based cell proliferation assay was performed using standard procedure with some modifications (38). The cytotoxic efficacy of the test compounds were evaluated in human malignant melanoma A2058 cells by MTT cell proliferation assay kit (Roche Applied Sciences, Germany). The assay was carried out according to the instruction provided by the vendor. Briefly, equal numbers of cells was plated in 96-well flat-bottomed plates in 100 μl of medium and were exposed to either DTIC or its derivative compounds at various concentrations up to 150 μg/ml for a period of three days. Vehicle control culture wells received only a maximum of 0.5% DMSO. […] After complete solubilization of the formazan crystals the absorbance was read at 540 nm in a microplate reader (BioRad, USA). […]
The comparative anti-tumor growth potential of DTIC and Compound 6 was further tested in B16F0 mouse melanoma cells and A375 human melanoma cells by using MTT based cell proliferation assay following the methodology described earlier (Example 19). […] After adding the MTT reagent, the cells were solubilized and the intracellular formazan formation was calorimetrically read at 540 nm in a microplate reader (BioRad, USA). […]

[2] = system: Vascular Endothelial Growth Factor (VEGF); assay: VEGF expression in B16F0 cells by western blot; format: cell-based, mouse; conditions: 50 μg/ml, 24 h
Description: B16F0 cells were cultivated in Dulbecco's modified Eagle's red medium (DMEM) (Sigma Life Science, USA) containing 10% fetal bovine serum (FBS) and 4.5 g/l D-glucose. Equal number cells (5×10^4) were seeded in culture dishes (35×10 mm, 11.7 cm^2). The cells were treated with either 50 μg/ml of DTIC or […] for 24 h. The cells incubated with only 0.1% DMSO was considered as vehicle control. After 24 h, the cell lysates were prepared and analyzed for Vascular Endothelial Growth Factor (VEGF) expression by western blot assay as described earlier with appropriate modifications (43).
For Western blot analyses, equal amount of B16F0 cell lysate proteins were separated in 12.5% SDS-PAGE under reducing conditions, and transferred onto nitrocellulose membranes (Bio-Rad, USA). The membranes were blocked with SuperBlock (Thermo scientific, USA) and subsequently reacted with VEGF antibody (Abeam, UK) at 4° C. overnight. Bound antibodies were probed with horseradish peroxidase conjugated secondary antibody and the specific immunoreactions were developed with enhanced chemiluminescence (Thermo scientific, USA). […] The images of immunoreactive bands were captured in Kodak Image Station 4000MM (Carestream Health Inc., New Haven, Conn.) and analyzed densitometrically by Kodak molecular Imaging software, Version 4.5.

[3] = system: normal human skin epithelial HS.531.sk cells; assay: LDH leakage assay on normal skin cells (tumor selectivity); format: cell-based
Description: From the data obtained from the MTT assay (Table J), compound 1, compound 6 and compound 13 have been selected and their cytotoxicity potential has been further validated in LDH leakage assay. […] Cytotoxicity potential of DTIC and its derivative compounds were evaluated by measuring the leaked lactate dehydrogenase (LDH) into the culture supernatant (LDH Cytotoxicity Detection Roche Applied Sciences, Germany). The leaked LDH is directly proportional to the cell damage done by the cytotoxic compounds. In brief, cells were treated with test compounds at various concentrations and incubated for 48 h. Vehicle control culture wells received only a maximum of 0.5% DMSO. The cell free culture supernatants were mixed with catalyst and dye solution and allowed to incubate for 15 min at room temperature. Finally, the reaction was stopped and the optical density was measured at 492 nm in a microplate reader (BioRad, USA). The results (mean OD±SD) obtained from quadruplicate wells were used in calculation to determine the cytotoxicity potential (50% of inhibitory concentration, IC50) of the test compounds. A plot of loss of cell viability as indicated by the leakage of LDH versus drug concentration is depicted in FIG. 1.
Next, to check whether the DTIC derivative compounds can selectively kill the melanoma cells without or minimally affecting the normal cells, we assessed the effect of the test compounds on normal human skin epithelial HS.531.sk cells. […] Whereas, 120 μg/ml of DTIC, compound 1, […] caused 5.8%, 4.2%, 2.4%, and 2.4% reduction in normal cell viability, respectively.

[4] = system: metastatic malignant melanoma; conditions: clinical setting; cited from earlier work
[5] = cited from earlier work
[6] = patient with renal and hepatic dysfunctions

| IC50 [1] | Structure (SMILES) | VEGF protein expression [2] | reduction in normal cell viability ([3]; 120 μg/ml) | effect on normal skin cell growth ([3]; up to 100 μg/ml) | Complete Response (CR) rate [4] | average cumulative excretion of unchanged DTIC in the urine ([5]; in six hours) | initial half life [5, 6] | terminal half life [5, 6] | initial half life of disappearance from the plasma ([5]; plasma, biphasic) | terminal half life of disappearance from the plasma ([5]; plasma, biphasic) |
| --- | --- | --- | --- | --- | --- | --- | --- | --- | --- | --- |
| 46.5 µg/mL (≈ 233 µM) | CN(C)/N=N/c1ccsc1C(=O)O [Compound 6, 3-[(dimethylamino)diazenyl]thiophene-2-carboxylic acid] | down regulation of VEGF protein | – | – | – | – | – | – | – | – |
| – | CN(C)/N=N/c1[nH]cnc1C(N)=O [DTIC, 5-(3,3-dimethyl-1-trizeno)-imidazole-4-carboxamide, reference compound] | – | 5.8% | do not affect the normal cell skin cell growth | below 10% | 40 % of the injected dose | 55 min | 432 min | 19 min | five |
